{"source": "patent US20180353524A1", "about": "“CANCER TREATMENT USING 2-DEOXY-2-FLUORO-L-FUCOSE IN COMBINATION WITH A CHECKPOINT INHIBITOR” (SEATTLE GENETICS, INC., priority 2015, published 2018)", "tested_on": "CMV reactive human PMBCs", "experiment": "In vitro 2FF and anti-PD1 antibody combination in human PBMCs (IFNγ, IL12p70)", "details": "1 μg/mL anti-PD1 (Pembrolizumab) added to co-culture of 2FF matured T-cells, DCs and CMV antigen", "procedure": "CMV reactive human PMBCs from a CMV positive donor (Astarte™ Biologics) were thawed, plated into a 6-well plate and cultured overnight in DC media (30% DMEM 70% X-vivo+2 mM glutamax+10% ATB serum+1% PS). The following day the supernatant was collected to isolate T-cells and the adhering cells were washed in media and then replenished with 2 mL media supplemented with IL4 (100 ng/μL) and GMCSF (200 ng/μL) per well to differentiate and proliferate the adhering monocytes into DCs. The plate was incubated for 4-5 days and then cells were moved into a T25 flask. Each time the cells were passaged (every 2-3 days) new cytokines were given. The T-cells in the supernatant were isolated using StemSep human T-cell enrichment kit (Stemcell technologies). The T-cells were then resuspended in T-cell media (RPMI+10% Fetal calf serum, 1% PS) and spilt into two T25 flasks (with or without 100-200 μM 2FF). CD3CD28 antibody coated beads (Miltenyi Biotec) (20 μL/flask) were added to activate the T-cells. After 24 h IL2 was added (100 ng/μL). Each time the cells were passaged new IL2 and 2FF were added. […]\nIFNγ and IL12p70 in the supernatants from 5 day co-cultures were measured using a Lumenix assay and the concentration of each cytokine was calculated using an internal standard curve."}
{"substance": "Pembrolizumab [anti-PD1, reference compound]", "values": [{"measurement": "antigen specific response (IFNγ, IL12p70) of 2FF matured T-cells on addition of anti-PD1", "result": "further enhances the antigen specific response"}]}
